The test concerns the target T1, rat mGlu2 (Rattus norvegicus, UniProt P31421).
T1 construct: expressed in transfected cells
The test is described as follows: mGlu2 Ca2+ flux assay. In kind it is cell-based. The conditions noted are these: for IC50: Gα15 HEK293 cells stably expressing rat mGlu2, glutamate EC80 addition, read-out: rat mGlu2 IC50; for remaining activity at 30 µM: amplitude of response in the presence of 30 μM test compound as percentage of maximal response to glutamate, read-out: rat mGlu2 Glu max (%). The procedure: Gα15 HEK293 cells stably expressing rat mGlu2 were plated in black-walled, clear-bottomed, poly-D-lysine coated 384-well plates in 20 μL of assay medium (DMEM containing 10% dialyzed FBS, 20 mM HEPES, and 1 mM sodium pyruvate) at a density of 12K cells/well. The cells were grown overnight at 37° C. in the presence of 5% CO2. The next day, medium was removed and the cells incubated with 20 μL of 2.3 μM Fluo-4, AM prepared as a 2.3 mM stock in DMSO and mixed in a 1:1 ratio with 10% (w/v) pluronic acid F-127 and diluted in assay buffer (Hank's balanced salt solution, 20 mM HEPES, and 2.5 mM probenecid) for 45 minutes at 37° C. Dye was removed, 20 μL of assay buffer was added, and the plate was incubated for 5 minutes at room temperature.
Ca^2+ flux was measured using the Functional Drug Screening System (FDSS7000, Hamamatsu, Japan). After establishment of a fluorescence baseline for about 3 seconds, the compounds of the present invention were added to the cells, and the response in cells was measured. 2.3 minutes later an EC20 concentration of the mGlu2 receptor agonist glutamate was added to the cells, and the response of the cells was measured for 1.9 minutes; an EC80 concentration of agonist was added and readings taken for an additional 1.7 minutes. All test compounds were dissolved and diluted to a concentration of 10 mM in 100% DMSO. Compounds were then serially diluted 1:3 in DMSO into 10 point concentration response curves, transferred to daughter plates, and further diluted into assay buffer to a 2× stock. Calcium fluorescence measures were recorded as fold over basal fluorescence; raw data was then normalized to the maximal response to glutamate. Antagonism of the agonist response of the mGlu2 receptor in the present invention was observed as a decrease in response to nearly maximal concentrations of glutamate in the presence of compound compared to the response to glutamate in the absence of compound.
The raw data file containing all time points was used as the data source in the analysis template. This was saved by the FDSS as a tab-delimited text file. Data were normalized using a static ratio function (F/F0) for each measurement of the total 360 values per well divided by each well's initial value. Data were then reduced to peak amplitudes (Max−Initial Min) using a time range that starts approximately 3 seconds prior to the glutamate EC80 addition and continues for approximately 90 seconds. This is sufficient time to capture the peak amplitude of the cellular calcium response. Individual amplitudes were expressed as % ECMax by multiplying each amplitude by 100 and then dividing the product by the mean of the amplitudes derived from the glutamate ECMax-treated wells. IC50 values for test compounds were generated by fitting the normalized values versus the log of the test compound concentration (in mol/L) using a 4 parameter logistic equation where none of the parameters were fixed. Each of the three values collected at each concentration of test compound were weighted evenly.
For NAMs, potency (IC50) and maximum response (% Glu Max), i.e. the amplitude of response in the presence of 30 μM test compound as a percentage of the maximal response to glutamate, are reported. […] Compounds with no measurable activity are designated as “>30,000 nM” since the top concentration of compound tested in the assay is 30 μM.

Results on 25 compounds are retold here after patent US9382208B1, “Negative allosteric modulators of metabotropic glutamate receptor 2” (Vanderbilt University, priority 2015, dated 2016).

T1 sequence (P31421 19-872): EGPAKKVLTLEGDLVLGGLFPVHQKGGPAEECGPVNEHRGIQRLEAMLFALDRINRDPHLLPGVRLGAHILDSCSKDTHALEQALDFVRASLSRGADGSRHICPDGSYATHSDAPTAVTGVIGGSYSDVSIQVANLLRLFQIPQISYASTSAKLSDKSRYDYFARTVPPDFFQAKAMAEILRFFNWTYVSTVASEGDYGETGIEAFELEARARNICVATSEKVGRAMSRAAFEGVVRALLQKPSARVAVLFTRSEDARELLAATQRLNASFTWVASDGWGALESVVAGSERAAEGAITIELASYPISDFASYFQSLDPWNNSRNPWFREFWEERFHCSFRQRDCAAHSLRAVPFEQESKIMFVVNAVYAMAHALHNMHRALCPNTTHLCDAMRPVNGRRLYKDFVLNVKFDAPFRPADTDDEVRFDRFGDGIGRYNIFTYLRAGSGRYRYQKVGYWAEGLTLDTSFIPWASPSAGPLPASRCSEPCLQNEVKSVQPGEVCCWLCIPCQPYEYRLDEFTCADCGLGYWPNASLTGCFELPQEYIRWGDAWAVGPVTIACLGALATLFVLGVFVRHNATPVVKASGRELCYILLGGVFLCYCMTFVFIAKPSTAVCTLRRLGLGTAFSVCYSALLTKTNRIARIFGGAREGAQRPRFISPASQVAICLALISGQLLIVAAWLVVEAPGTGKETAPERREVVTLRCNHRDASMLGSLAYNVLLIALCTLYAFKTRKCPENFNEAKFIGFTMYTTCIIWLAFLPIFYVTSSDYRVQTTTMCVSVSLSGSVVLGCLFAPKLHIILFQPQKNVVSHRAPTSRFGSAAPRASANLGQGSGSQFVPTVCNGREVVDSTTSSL

As for `Cc1ncc(CCc2ccc3c(c2)c(=O)c(C(N)=O)cn3-c2ccc(F)cc2)cn1` [Compound 1, 1-(4-Fluorophenyl)-6-(2-(2-methylpyrimidin-5-yl)ethyl)-4-oxo-1,4-dihydroquinoline-3-carboxamide], the IC50 came out at 0.227 ± 0.055 µM and the remaining activity at 30 µM was 1.52 ± 0.26%.

On to `NC(=O)c1cn(-c2ccc(F)cc2)c2ccc(CN3CCSCC3)cc2c1=O` [Compound 2, 1-(4-fluorophenyl)-4-oxo-6-(thiomorpholinomethyl)-1,4-dihydroquinoline-3-carboxamide], for which the IC50 stood at 0.44 ± 0.097 µM and the remaining activity at 30 µM was determined as 1.52 ± 0.63%.

With `NC(=O)c1cn(-c2ccc(F)cc2)c2ccc(CN3CCOCC3)cc2c1=O` [Compound 3, 1-(4-fluorophenyl)-6-(morpholinomethyl)-4-oxo-1,4-dihydroquinoline-3-carboxamide], the IC50 was found to be 3.91 µM and the remaining activity at 30 µM is -0.78%.

With `NC(=O)c1cn(-c2ccc(F)cc2)c2ccc(CN3CCCCC3)cc2c1=O` [Compound 4, 1-(4-fluorophenyl)-4-oxo-6-(piperidin-1-ylmethyl)-1,4-dihydroquinoline-3-carboxamide], the IC50 was greater than 10 µM and the remaining activity at 30 µM amounted to 53.8%.

For the compound `NC(=O)c1cn(-c2ccc(F)cc2)c2ccc(CCc3ccccc3)cc2c1=O` [Compound 5, 1-(4-fluorophenyl)-4-oxo-6-phenethyl-1,4-dihydroquinoline-3-carboxamide], the IC50 was no less than 10 µM and the remaining activity at 30 µM was determined as 4.65%.

On to `Cc1ccc(CCc2ccc3c(c2)c(=O)c(C(N)=O)cn3-c2ccc(F)cc2)cc1` [Compound 6, 1-(4-fluorophenyl)-6-(4-methylphenethyl)-4-oxo-1,4-dihydroquinoline-3-carboxamide], for which the IC50 was greater than 10 µM and the remaining activity at 30 µM is 68.5%.

In the case of `Cc1cccc(CCc2ccc3c(c2)c(=O)c(C(N)=O)cn3-c2ccc(F)cc2)c1` [Compound 7, 1-(4-fluorophenyl)-6-(3-methylphenethyl)-4-oxo-1,4-dihydroquinoline-3-carboxamide], the IC50 is greater than 10 µM and the remaining activity at 30 µM amounted to 42.1%.

Turning to `Cc1ccccc1CCc1ccc2c(c1)c(=O)c(C(N)=O)cn2-c1ccc(F)cc1` [Compound 8, 1-(4-fluorophenyl)-6-(2-methylphenethyl)-4-oxo-1,4-dihydroquinoline-3-carboxamide], the IC50 was greater than 10 µM and the remaining activity at 30 µM is 18.7%.

With `NC(=O)c1cn(-c2ccc(F)cc2)c2ccc(CCc3ccncc3)cc2c1=O` [Compound 9, 1-(4-fluorophenyl)-4-oxo-6-(2-(pyridin-4-yl)ethyl)-1,4-dihydroquinoline-3-carboxamide], the IC50 was determined as 0.492 ± 0.097 µM and the remaining activity at 30 µM came out at 1.88 ± 0.38%.

Consider `NC(=O)c1cn(-c2ccc(F)cc2)c2ccc(CCc3cccnc3)cc2c1=O` [Compound 10, 1-(4-fluorophenyl)-4-oxo-6-(2-(pyridin-3-yl)ethyl)-1,4-dihydroquinoline-3-carboxamide], for which the IC50 came to 0.482 ± 0.087 µM and the remaining activity at 30 µM came to 1.9 ± 0.11%.

For `NC(=O)c1cn(-c2ccc(F)cc2)c2ccc(CCc3ccccn3)cc2c1=O` [Compound 11, 1-(4-fluorophenyl)-4-oxo-6-(2-(pyridin-2-yl)ethyl)-1,4-dihydroquinoline-3-carboxamide], the concentration for half-maximal inhibition (IC50) came out at 2.59 µM and the remaining activity at 30 µM was determined as 0.92%.

Turning to `CN(Cc1cccnc1)c1ccc2c(c1)c(=O)c(C(N)=O)cn2-c1ccc(F)cc1` [Compound 12, 1-(4-fluorophenyl)-6-(methyl(pyridin-3-ylmethyl)amino)-4-oxo-1,4-dihydroquinoline-3-carboxamide], the IC50 was 0.202 ± 0.014 µM and the remaining activity at 30 µM turned out to be 2.39 ± 0.13%.

With `COc1ccc(-n2cc(C(N)=O)c(=O)c3cc(CCc4cnc(C)nc4)ccc32)c(F)c1` [Compound 13, 1-(2-fluoro-4-methoxyphenyl)-6-(2-(2-methylpyrimidin-5-yl)ethyl)-4-oxo-1,4-dihydroquinoline-3-carboxamide], the half-inhibitory concentration (IC50) came out at 0.311 µM and the remaining activity at 30 µM is 1.14%.

On to `COc1ccc(-n2cc(C(N)=O)c(=O)c3cc(CCc4cnc(C)nc4)ccc32)cc1F` [Compound 14, 1-(3-fluoro-4-methoxyphenyl)-6-(2-(2-methylpyrimidin-5-yl)ethyl)-4-oxo-1,4-dihydroquinoline-3-carboxamide], for which the IC50 was 0.252 µM and the remaining activity at 30 µM is 1.15%.

Turning to `COc1ccc(-n2cc(C(N)=O)c(=O)c3cc(CCc4cnc(C)nc4)ccc32)cc1` [Compound 15, 1-(4-methoxyphenyl)-6-(2-(2-methylpyrimidin-5-yl)ethyl)-4-oxo-1,4-dihydroquinoline-3-carboxamide], the IC50 stood at 0.139 µM and the remaining activity at 30 µM came to 1.61%.

With `NC(=O)c1cn(-c2ccc(F)cc2)c2ccc(Nc3cccnc3)cc2c1=O` [Compound 16, 1-(4-fluorophenyl)-4-oxo-6-(pyridin-3-ylamino)-1,4-dihydroquinoline-3-carboxamide], the IC50 was 0.433 µM and the remaining activity at 30 µM was 1.77%.

In the case of `NC(=O)c1cn(-c2ccc(F)cc2)c2ccc(NCc3cccnc3)cc2c1=O` [Compound 17, 1-(4-fluorophenyl)-4-oxo-6-((pyridin-3-ylmethyl)amino)-1,4-dihydroquinoline-3-carboxamide], the IC50 is 0.421 µM and the remaining activity at 30 µM stood at 1.05%.

In the case of `CN(c1ccncc1)c1ccc2c(c1)c(=O)c(C(N)=O)cn2-c1ccc(F)cc1` [Compound 18, 1-(4-fluorophenyl)-6-(methyl(pyridin-4-yl)amino)-4-oxo-1,4-dihydroquinoline-3-carboxamide], the IC50 was found to be 1.15 µM and the remaining activity at 30 µM amounted to 1.73%.

Regarding `CN(Cc1ccncc1)c1ccc2c(c1)c(=O)c(C(N)=O)cn2-c1ccc(F)cc1` [Compound 19, 1-(4-fluorophenyl)-6-(methyl(pyridin-4-ylmethyl)amino)-4-oxo-1,4-dihydroquinoline-3-carboxamide], the half-inhibitory concentration (IC50) was 0.224 µM and the remaining activity at 30 µM worked out at 1.02%.

`CN(c1cccnc1)c1ccc2c(c1)c(=O)c(C(N)=O)cn2-c1ccc(F)cc1` [Compound 20, 1-(4-fluorophenyl)-6-(methyl(pyridin-3-yl)amino)-4-oxo-1,4-dihydroquinoline-3-carboxamide]: the IC50 was 0.155 µM and the remaining activity at 30 µM was 1.33%.

`Cc1ccc(COc2ccc3c(c2)c(=O)c(C(N)=O)cn3-c2ccc(F)cc2)cn1` [Compound 21, 1-(4-fluorophenyl)-6-((6-methylpyridin-3-yl)methoxy)-4-oxo-1,4-dihydroquinoline-3-carboxamide]: the IC50 turned out to be 0.541 ± 0.116 µM and the remaining activity at 30 µM worked out at 1.55 ± 0.39%.

For the compound `Cc1cc(-n2cc(C(N)=O)c(=O)c3cc(CCc4cnc(C)nc4)ccc32)sn1` [Compound 22, 1-(3-methylisothiazol-5-yl)-6-(2-(2-methylpyrimidin-5-yl)ethyl)-4-oxo-1,4-dihydroquinoline-3-carboxamide], the IC50 worked out at 0.419 ± 0.046 µM and the remaining activity at 30 µM came to 1.2 ± 0.5%.

For `CC(Oc1ccc2c(c1)c(=O)c(C(N)=O)cn2-c1ccc(F)cc1)c1ccncc1` (centres unmarked) [Compound 23, 1-(4-fluorophenyl)-4-oxo-6-(1-(pyridin-4-yl)ethoxy)-1,4-dihydroquinoline-3-carboxamide], the IC50 worked out at 0.46 ± 0.062 µM and the remaining activity at 30 µM worked out at 1.07 ± 0.13%.

`Cc1cc(COc2ccc3c(c2)c(=O)c(C(N)=O)cn3-c2ccc(F)cc2)ccn1` [Compound 24, 1-(4-fluorophenyl)-6-((2-methylpyridin-4-yl)methoxy)-4-oxo-1,4-dihydroquinoline-3-carboxamide]: the IC50 is 0.422 ± 0.094 µM and the remaining activity at 30 µM came out at 1.09 ± 0.16%.

On to `NC(=O)c1cn(-c2ccc(F)cc2)c2ccc(OCc3ccncc3)cc2c1=O` [Compound 25, 1-(4-fluorophenyl)-4-oxo-6-(pyridin-4-ylmethoxy)-1,4-dihydroquinoline-3-carboxamide], for which the 50% inhibitory concentration (IC50) worked out at 1.23 µM and the remaining activity at 30 µM is 0.97%.
